From the supplement of paper PMC10307832

Key:
Test in all cases: relative viability (nuclei count vs DMSO), 5 days (fraction); higher = more cells survive
Tivantinib + Dasatinib = compound: O=C1NC(=O)[C@@H](c2cn3c4c(cccc24)CCC3)[C@@H]1c1c[nH]c2ccccc12 [Tivantinib] + Cc1nc(Nc2ncc(C(=O)Nc3c(C)cccc3Cl)s2)cc(N2CCN(CCO)CC2)n1 [Dasatinib] (partner 0.075 µM)
Method in brief: (§1)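 Cells from lung cancer lines were seeded into 1536-well plates and, one day later, dosed by pin tool. Treatments were either a single drug or a fixed dose of an anchor drug with five library-drug doses (not always all listed) in √10 steps. After 5 days, nuclei were stained in a one-step fixation (final 0.05% Triton X-100, 1% formaldehyde, 1 ug/ml Hoechst) and counted on 4× images, and relative viability is the treated-to-vehicle nuclei ratio, as the median of duplicate plates.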

Tivantinib + Luminespib = compound: O=C1NC(=O)[C@@H](c2cn3c4c(cccc24)CCC3)[C@@H]1c1c[nH]c2ccccc12 [Tivantinib] + CCNC(=O)c1noc(-c2cc(C(C)C)c(O)cc2O)c1-c1ccc(CN2CCOCC2)cc1 [Luminespib] (partner 0.01 µM)
Method in brief: as §1

Crenolanib + Decitabine = compound: CC1(COc2ccc3c(c2)ncn3-c2ccc3cccc(N4CCC(N)CC4)c3n2)COC1 [Crenolanib] + Nc1ncn([C@H]2C[C@H](O)[C@@H](CO)O2)c(=O)n1 [Decitabine] (partner 2 µM)
Method in brief: as §1

Crenolanib + Bortezomib = compound: CC1(COc2ccc3c(c2)ncn3-c2ccc3cccc(N4CCC(N)CC4)c3n2)COC1 [Crenolanib] + CC(C)C[C@H](NC(=O)[C@H](Cc1ccccc1)NC(=O)c1cnccn1)B(O)O [Bortezomib] (partner 0.002 µM)
Method in brief: as §1

Cell Line | relative viability (Tivantinib + Dasatinib; first compound 0.01 µM) | relative viability (Tivantinib + Dasatinib; first compound 0.03162 µM) | relative viability (Tivantinib + Dasatinib; first compound 0.1 µM) | relative viability (Tivantinib + Dasatinib; first compound 0.3162 µM) | relative viability (Tivantinib + Luminespib; first compound 0.01 µM) | relative viability (Tivantinib + Luminespib; first compound 0.03162 µM) | relative viability (Tivantinib + Luminespib; first compound 0.1 µM) | relative viability (Tivantinib + Luminespib; first compound 0.3162 µM) | relative viability (Crenolanib + Decitabine; first compound 0.01 µM) | relative viability (Crenolanib + Decitabine; first compound 0.03162 µM) | relative viability (Crenolanib + Decitabine; first compound 0.1 µM) | relative viability (Crenolanib + Decitabine; first compound 0.3162 µM) | relative viability (Crenolanib + Decitabine; first compound 1 µM) | relative viability (Crenolanib + Bortezomib; first compound 0.01 µM) | relative viability (Crenolanib + Bortezomib; first compound 0.03162 µM) | relative viability (Crenolanib + Bortezomib; first compound 0.1 µM) | relative viability (Crenolanib + Bortezomib; first compound 0.3162 µM) | relative viability (Crenolanib + Bortezomib; first compound 1 µM)
201T | 0.562 | 0.566 | 0.547 | 0.554 | 1.07 | 1.05 | 1.01 | 1.09 | 0.863 | 0.839 | 0.822 | 0.884 | 0.843 | 1.06 | 1.12 | 1.06 | 1.04 | 1.07
A549 |  |  |  |  |  |  |  |  | 0.208 | 0.258 | 0.282 | 0.221 | 0.293 |  |  |  |  | 
A-427 | 0.677 | 0.731 | 0.712 | 0.686 | 0.971 | 0.873 | 0.899 | 0.76 | 0.573 |  | 0.592 | 0.553 | 0.52 | 0.961 | 1.12 | 0.987 | 1.01 | 1.03
ABC-1 | 0.629 | 0.742 | 0.566 | 0.516 | 0.43 | 0.944 | 0.339 | 0.675 | 1.42 | 1.22 | 0.978 | 1.17 | 1.15 | 0.289 | 0.353 | 0.331 | 0.308 | 0.253
BEN | 0.293 | 0.308 | 0.382 | 0.359 | 0.361 | 0.262 | 0.232 | 0.385 | 0.768 | 0.72 | 0.76 | 0.612 | 0.749 | 0.821 | 0.644 | 0.733 | 0.881 | 0.761
CAL-12T | 0.479 | 0.499 | 0.403 | 0.238 | 0.506 | 0.756 | 0.43 | 0.259 |  |  |  |  |  | 1.05 | 0.667 | 1.23 | 1.02 | 0.789
COR-L23 | 0.498 | 0.542 | 0.48 | 0.5 | 0.625 | 0.685 | 0.661 | 0.757 | 0.326 | 0.473 | 0.431 | 0.487 | 0.413 | 0.983 | 1.16 | 0.921 | 1.13 | 1.03
COR-L 105 | 0.42 | 0.287 | 0.334 | 0.216 | 0.708 | 0.835 | 0.873 | 0.742 | 0.684 | 0.669 | 0.698 | 0.682 | 0.675 | 0.95 | 0.863 | 0.646 | 0.825 | 0.676
Calu-6 |  |  |  |  |  |  |  |  |  |  |  |  |  | 1.06 | 0.97 | 1.03 | 1.1 | 1.02
ChaGo-K-1 | 0.584 | 0.604 | 0.612 | 0.564 | 0.679 | 0.539 | 0.576 | 0.597 | 0.56 | 0.489 | 0.533 | 0.513 | 0.556 | 1.07 | 0.769 | 0.941 | 0.969 | 0.971
EBC-1 |  |  |  |  |  |  |  |  |  |  |  |  |  | 0.798 | 0.581 | 0.573 | 0.559 | 0.462
EKVX | 0.615 | 0.431 | 0.618 | 0.315 | 0.997 | 0.927 | 0.938 |  | 0.377 | 0.318 | 0.392 | 0.319 | 0.38 | 1.03 | 0.994 | 0.974 | 1.2 | 1.08
EMC-BAC-2 | 0.35 | 0.307 | 0.183 | 0.343 | 1.17 | 1.17 | 1.18 | 1.08 | 1.07 |  | 0.957 | 1.11 | 0.963 | 1.19 | 1.03 | 1.01 | 1.18 | 1.01
EPLC-272H | 0.409 | 0.343 | 0.293 | 0.176 | 0.374 | 0.23 | 0.431 | 0.19 | 0.455 | 0.391 | 0.339 | 0.391 | 0.358 |  | 0.766 | 0.747 | 0.887 | 0.874
H3255 | 0.35 | 0.38 | 0.361 |  | 0.934 | 0.811 | 0.741 |  | 0.674 | 0.629 | 0.588 | 0.587 | 0.652 | 0.89 | 0.543 | 0.765 | 0.7 | 0.759
HARA | 0.293 | 0.302 | 0.299 | 0.225 | 0.909 | 0.592 | 0.738 | 0.689 | 0.67 | 0.543 | 0.447 | 0.586 | 0.569 | 1.17 | 1.1 | 1.09 | 1.13 | 1.16
HCC-15 | 0.609 | 0.591 | 0.587 | 0.639 | 0.246 | 0.285 | 0.456 | 0.289 | 0.625 | 0.621 | 0.603 | 0.689 | 0.65 | 1.15 | 1.01 | 0.909 | 1.05 | 0.956
